Experimental data published in the supplement of paper PMC8967900.

Experiments:
Experiment in all cases: selective drug sensitivity score (sDSS, relative to normal bone marrow) (sDSS (score)); higher = more potent and effective on the cell line relative to normal bone marrow cells
Settings in all cases: 72 h
380 = tested on: 380
KASUMI-9 = tested on: KASUMI-9
PF-382 = tested on: PF-382
MHH-CALL-3 = tested on: MHH-CALL-3
COG-LL-394h = tested on: COG-LL-394h
JURKAT = tested on: JURKAT
TMD5 = tested on: TMD5
P30-OHKUBO = tested on: P30-OHKUBO
MOLT-4 = tested on: MOLT-4
RPMI-8402 = tested on: RPMI-8402
ALL-PO = tested on: ALL-PO
P12-ICHIKAWA = tested on: P12-ICHIKAWA
MHH-CALL-2 = tested on: MHH-CALL-2
COG-LL-355h = tested on: COG-LL-355h
PEER = tested on: PEER
RCH-ACV = tested on: RCH-ACV
ALL-SIL = tested on: ALL-SIL
KARPAS-45 = tested on: KARPAS-45
COG-LL-402h = tested on: COG-LL-402h
COG-LL-317 = tested on: COG-LL-317
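Also: ALL cell lines in 384-well plates, five doses spanning 10,000-fold, each plate scaled between vehicle and 100 µmol/L benzalkonium chloride controls, sDSS an adapted area-under-curve metric.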

Row | SMILES | selective drug sensitivity score 380 | selective drug sensitivity score (KASUMI-9) | selective drug sensitivity score (PF-382) | selective drug sensitivity score (MHH-CALL-3) | selective drug sensitivity score (COG-LL-394h) | selective drug sensitivity score (JURKAT) | selective drug sensitivity score (TMD5) | selective drug sensitivity score (P30-OHKUBO) | selective drug sensitivity score (MOLT-4) | selective drug sensitivity score (RPMI-8402) | selective drug sensitivity score (ALL-PO) | selective drug sensitivity score (P12-ICHIKAWA) | selective drug sensitivity score (MHH-CALL-2) | selective drug sensitivity score (COG-LL-355h) | selective drug sensitivity score (PEER) | selective drug sensitivity score (RCH-ACV) | selective drug sensitivity score (ALL-SIL) | selective drug sensitivity score (KARPAS-45) | selective drug sensitivity score (COG-LL-402h) | selective drug sensitivity score (COG-LL-317)
1 | CC(C)C[C@H](NC(=O)[C@@H](COC(C)(C)C)NC(=O)[C@H](Cc1ccc(O)cc1)NC(=O)[C@H](CO)NC(=O)[C@H](Cc1c[nH]c2ccccc12)NC(=O)[C@H](Cc1cnc[nH]1)NC(=O)[C@@H]1CCC(=O)N1)C(=O)N[C@@H](CCCNC(=N)N)C(=O)N1CCC[C@H]1C(=O)NNC(N)=O [Goserelin] (top concentration 10000 nM) | -0.06 | -0.06 | -0.06 | -0.06 | -0.06 | -0.06 | -0.06 | -0.06 | -0.06 | -0.06 | -0.06 | -0.06 | -0.06 | -0.06 | -0.06 | -0.06 | -0.06 | -0.06 | -0.06 | -0.06
2 | COc1cc([C@@H]2c3cc4c(cc3[C@@H](O[C@@H]3O[C@@H]5CO[C@@H](C)O[C@H]5[C@H](O)[C@H]3O)[C@H]3COC(=O)[C@H]23)OCO4)cc(OC)c1O [Etoposide] (top concentration 10000 nM) | 21.3 | 16.3 | 13.5 | 19.7 | 7.04 | 14.2 | 5.24 | 16.3 | 23.5 | 17.4 | 5.44 | 18.9 | 13.2 | 6.74 | 6.84 | 25.1 | 14.3 | 7.24 | 21.4 | 29.8
3 | N.N.[Cl][Pt][Cl] [Cisplatin] (top concentration 100000 nM) | 7.54 | 12.3 | 10.2 | 4.04 | 0.54 | 13.1 | 1.24 | 16.7 | 16.2 | 4.04 | 8.44 | 12.7 | 14.6 | 5.84 | 2.64 | 20.5 | 8.94 | 5.84 | 1.54 | 23.2
4 | CN1C(=O)N[C@H](Cc2c[nH]c3c(Cl)cccc23)C1=O [Necrostatin_2] (top concentration 10000 nM) | -0.08 | -0.08 | -0.08 | -0.08 | -0.08 | -0.08 | -0.08 | -0.08 | -0.08 | -0.08 | -0.08 | -0.08 | -0.08 | -0.08 | -0.08 | -0.08 | -0.08 | -0.08 | -0.08 | -0.08
5 | CCS(=O)(=O)N1CC(CC#N)(n2cc(-c3ncnc4[nH]ccc34)cn2)C1 [Baricitinib] (top concentration 2500 nM) | -1.94 | -1.94 | -1.94 | -1.94 | -1.94 | -1.94 | -1.94 | -1.94 | -1.94 | -1.94 | -1.94 | -1.94 | -1.94 | -1.94 | 0.96 | -1.94 | 4.66 | -1.94 | -1.94 | -1.94
6 | COc1cc(N2CCN(C)CC2)ccc1Nc1nccc(-c2cn(C)c3cnccc23)n1 [AZ191] (top concentration 10000 nM) | -2.42 | 1.58 | -1.82 | -2.72 | -0.72 | -3.02 | -4.32 | -0.72 | -3.32 | 0.18 | 3.58 | -2.22 | 3.88 | -0.02 | -1.92 | 2.38 | -1.52 | 0.98 | -0.22 | 0.58
7 | Nc1cccc2c1C(=O)N(C1CCC(=O)NC1=O)C2=O (stereo not given) [Pomalidomide] (top concentration 10000 nM) | -0.26 | 6.84 | -0.26 | -0.26 | 0.04 | -0.26 | -0.26 | 0.54 | -0.26 | -0.26 | 8.14 | -0.26 | -0.16 | 5.24 | -0.26 | 9.54 | -0.26 | -0.26 | 0.64 | -0.26
8 | CCN1CCN(c2ccc(Nc3cc(N(C)C(=O)Nc4c(Cl)c(OC)cc(OC)c4Cl)ncn3)cc2)CC1 [Infigratinib] (top concentration 1000 nM) | 0 | 0 | 0 | 0 | 0 | 0 | 0 | 0 | 0 | 0 | 0 | 0 | 0 | 0 | 0 | 0 | 0 | 0 | 0 | 0
9 | CC1(C)C(C(=O)Nc2ccc(S(=O)(=O)c3ccc(NC(=O)C4C(C)(C)C4(C)C)cc3)cc2)C1(C)C [BRD7116] (top concentration 10000 nM) | -0.24 | 4.46 | 0.36 | -0.24 | 3.16 | 1.76 | 0.66 | 4.46 | 0.66 | 0.96 | -0.24 | 0.66 | 0.16 | -0.24 | -0.14 | -0.14 | -0.24 | -0.04 | -0.24 | -0.24
10 | Cc1cc(Nc2nc(N[C@@H](C)c3ncc(F)cn3)ncc2Cl)[nH]n1 [AZD1480] (top concentration 1000 nM) | -0.58 | -0.68 | -4.08 | -1.28 | -4.18 | -3.68 | -1.98 | -4.18 | -3.28 | -3.18 | 0.72 | -4.28 | -1.38 | 0.42 | -3.48 | -2.18 | -0.28 | 0.32 | -3.98 | -2.78
11 | O=S(=O)(c1cccc2c(O)nccc12)N1CCCNCC1 [Hydroxyfasudil] (top concentration 19000 nM) | 3.98 | -0.12 | -0.92 | 3.88 | -0.92 | -0.92 | 5.68 | -0.52 | -0.72 | -0.72 | -0.92 | -0.92 | 5.88 | -0.92 | 0.08 | -0.72 | -0.92 | 0.48 | -0.92 | -0.22
